# What was measured:
# PDGF-Ra = molecular target: T1, PDGF-Ra (Homo sapiens, UniProt P16234); experiment: Inhibitory activity against PDGF-Ra phosphorylation by PDGF-AA stimulation using G292; type: cell-based; details: for IC50: > means inhibition at indicated concentration not more than 50%, < and << not less than 50%, read-out: PDGF (E) IC50; for inhibition at 0.1 µM: G292, figure within parentheses in >100( ), at 100 nM, read-out: PDGF (E) inhibition (%) at 100 nM
# T1 construct: host or cells: G-292 human osteosarcoma cells
# Procedure, shortened: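 Cells seeded in low-serum medium are exposed to test compound for one hour, then PDGF-AA (50 ng/ml) triggers receptor phosphorylation for 5 min at 37 °C. Phospho-PDGF-Ra in solubilized cells is quantified by anti-phosphotyrosine capture ELISA at 450 nm.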
# c-kit = molecular target: T2, c-kit (Homo sapiens, UniProt P10721); experiment: Inhibitory activity against c-kit autophosphorylation (MO7e cells, h-SCF); type: cell-based; details: for inhibition at 1 µM: Mo7e, figure within parentheses in −( ) or >1000( ), at 1000 nM; for IC50: MO7e cells, 50 ng/ml h-SCF, read-out: c-kit IC50
# T2 construct: MO7e (human megakaryocytic leukemia cell line) which had been arrested for 20 hr; endogenous in cells; host or cells: MO7e human megakaryocytic leukemia cell line
# Procedure, shortened: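 Ligand-induced c-kit tyrosine phosphorylation is measured in MO7e cells that were quiesced 20 hr and preincubated with compound for 1 hr prior to a 5 min pulse of 50 ng/ml human SCF. Phospho-c-kit is detected by anti-phosphotyrosine capture ELISA, A450.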
# T1 sequence (P16234 24-1089): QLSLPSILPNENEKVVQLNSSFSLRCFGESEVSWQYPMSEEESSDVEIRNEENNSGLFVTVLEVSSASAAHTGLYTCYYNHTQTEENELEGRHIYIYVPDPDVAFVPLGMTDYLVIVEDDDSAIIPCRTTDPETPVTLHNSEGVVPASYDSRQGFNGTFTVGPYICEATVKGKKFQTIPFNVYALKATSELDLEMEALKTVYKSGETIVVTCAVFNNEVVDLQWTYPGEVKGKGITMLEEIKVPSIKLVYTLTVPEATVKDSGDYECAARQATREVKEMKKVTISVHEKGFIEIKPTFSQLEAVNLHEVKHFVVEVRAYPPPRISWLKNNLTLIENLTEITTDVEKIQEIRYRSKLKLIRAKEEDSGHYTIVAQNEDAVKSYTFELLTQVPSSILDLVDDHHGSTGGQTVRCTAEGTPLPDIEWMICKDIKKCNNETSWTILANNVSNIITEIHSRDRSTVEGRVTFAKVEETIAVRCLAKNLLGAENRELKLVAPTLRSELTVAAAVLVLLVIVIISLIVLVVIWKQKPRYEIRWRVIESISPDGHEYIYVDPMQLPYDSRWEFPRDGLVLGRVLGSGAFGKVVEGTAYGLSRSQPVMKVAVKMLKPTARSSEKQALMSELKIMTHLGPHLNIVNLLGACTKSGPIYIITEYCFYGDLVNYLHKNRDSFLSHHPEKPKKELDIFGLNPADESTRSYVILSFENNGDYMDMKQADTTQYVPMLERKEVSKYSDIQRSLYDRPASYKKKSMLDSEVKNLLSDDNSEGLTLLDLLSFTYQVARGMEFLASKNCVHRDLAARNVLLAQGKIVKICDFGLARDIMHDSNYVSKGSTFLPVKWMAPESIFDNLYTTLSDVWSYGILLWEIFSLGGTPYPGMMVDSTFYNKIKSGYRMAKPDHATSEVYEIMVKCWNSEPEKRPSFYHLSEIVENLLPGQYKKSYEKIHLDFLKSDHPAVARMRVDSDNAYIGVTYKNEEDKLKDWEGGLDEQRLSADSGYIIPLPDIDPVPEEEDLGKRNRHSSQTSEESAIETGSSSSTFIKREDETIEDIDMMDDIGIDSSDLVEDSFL
# T2 sequence (P10721 26-976): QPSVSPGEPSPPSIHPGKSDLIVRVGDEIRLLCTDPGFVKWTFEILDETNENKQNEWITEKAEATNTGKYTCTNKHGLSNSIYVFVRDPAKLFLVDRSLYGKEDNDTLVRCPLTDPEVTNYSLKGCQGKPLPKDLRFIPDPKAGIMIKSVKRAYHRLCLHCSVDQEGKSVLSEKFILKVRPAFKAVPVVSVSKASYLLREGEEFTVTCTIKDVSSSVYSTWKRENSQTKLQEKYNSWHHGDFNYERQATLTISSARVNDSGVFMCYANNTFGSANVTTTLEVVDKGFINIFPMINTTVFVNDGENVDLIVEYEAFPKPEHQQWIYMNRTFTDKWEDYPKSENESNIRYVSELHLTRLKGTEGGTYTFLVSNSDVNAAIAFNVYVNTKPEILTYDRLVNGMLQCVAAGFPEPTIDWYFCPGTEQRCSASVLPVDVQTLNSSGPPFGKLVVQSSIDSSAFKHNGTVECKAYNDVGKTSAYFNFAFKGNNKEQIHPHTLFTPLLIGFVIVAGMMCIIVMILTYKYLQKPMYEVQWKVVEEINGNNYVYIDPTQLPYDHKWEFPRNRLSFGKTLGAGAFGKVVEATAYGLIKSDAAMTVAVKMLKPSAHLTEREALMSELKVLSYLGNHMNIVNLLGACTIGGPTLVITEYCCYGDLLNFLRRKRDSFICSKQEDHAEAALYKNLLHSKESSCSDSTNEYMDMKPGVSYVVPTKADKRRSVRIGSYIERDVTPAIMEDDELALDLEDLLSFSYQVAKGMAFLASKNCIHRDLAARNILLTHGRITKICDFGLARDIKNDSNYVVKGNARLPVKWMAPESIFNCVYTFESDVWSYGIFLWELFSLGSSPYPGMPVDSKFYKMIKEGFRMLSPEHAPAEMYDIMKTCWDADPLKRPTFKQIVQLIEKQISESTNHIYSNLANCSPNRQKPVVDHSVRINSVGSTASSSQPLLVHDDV
IC50 (PDGF-Ra) [µM],inhibition at 1 µM (c-kit) [%],IC50 (c-kit) [µM],inhibition at 0.1 µM (PDGF-Ra) [%],Structure (SMILES)
0.043,43,–,–,"COc1cc2nccc(Oc3ccc(NC(=O)NCCN(C(C)C)C(C)C)c(C)c3C)c2cc1OC [Example 655, N-[2-(Diisopropylamino)ethyl]-N′-{4-[(6,7-dimethoxy-4-quinolyl)oxy]-2,3-dimethylphenyl}urea]"
0.019,32,–,–,"COc1cc2ncnc(Oc3ccc(NC(=O)NCCN(C(C)C)C(C)C)cc3)c2cc1OC [Example 656, N-[2-(Diisopropylamino)ethyl]-N′-{4-[(6,7-dimethoxy-4-quinazolinyl)oxy]phenyl}urea]"
0.04,27,–,–,"COc1cc2ncnc(Oc3ccc(NC(=O)NCCN(C(C)C)C(C)C)c(Cl)c3)c2cc1OC [Example 657, N-{2-Chloro-4-[(6,7-dimethoxy-4-quinazolinyl)oxy]phenyl}-N′-[2-(diisopropylamino)ethyl]urea]"
0.019,–,0.389,–,"COc1cc2nccc(Oc3ccc(NC(=O)NCCN(C(C)C)C(C)C)c([N+](=O)[O-])c3)c2cc1OC [Example 658, N-[2-(Diisopropylamino)ethyl]-N′-{4-[(6,7-dimethoxy-4-quinolyl)oxy]-2-nitrophenyl}urea]"
0.025,–,0.835,–,"COc1cc(Oc2ncnc3cc(OC)c(OC)cc23)ccc1NC(=O)NCCN(C(C)C)C(C)C [Example 660, N-[2-(Diisopropylamino)ethyl]-N′-{4-[(6,7-dimethoxy-4-quinazolinyl)oxy]-2-methoxyphenyl}urea]"
< 0.01,–,0.075,–,"CCN(CCNC(=O)Nc1ccc(Oc2ccnc3cc(OC)c(OC)cc23)cc1)c1cccc(C)c1 [Example 661, N-{4-[(6,7-Dimethoxy-4-quinolyl)oxy]phenyl}-N′-[2-(ethyl-3-methylanilino)ethyl]urea]"
0.023,–,0.296,–,"CCN(CCNC(=O)Nc1cc(C)c(Oc2ccnc3cc(OC)c(OC)cc23)cc1C)c1cccc(C)c1 [Example 662, N-{4-[(6,7-Dimethoxy-4-quinolyl)oxy]-2,5-dimethylphenyl}-N′-[2-(ethyl-3-methylanilino)ethyl]urea]"
< 0.01,–,0.202,–,"CCN(CCNC(=O)Nc1ccc(Oc2ccnc3cc(OC)c(OC)cc23)c(C)c1C)c1cccc(C)c1 [Example 663, N-{4-[(6,7-Dimethoxy-4-quinolyl)oxy]-2,3-dimethylphenyl}-N′-[2-(ethyl-3-methylanilino)ethyl]urea]"
< 0.01,–,0.097,–,"CCN(CCNC(=O)Nc1ccc(Oc2ncnc3cc(OC)c(OC)cc23)cc1)c1cccc(C)c1 [Example 664, N-{4-[(6,7-Dimethoxy-4-quinazolinyl)oxy]phenyl}-N′-[2-(ethyl-3-methylanilino)ethyl]urea]"
0.011,–,0.122,–,"CCN(CCNC(=O)Nc1ccc(Oc2ncnc3cc(OC)c(OC)cc23)cc1Cl)c1cccc(C)c1 [Example 665, N-{2-Chloro-4-[(6,7-dimethoxy-4-quinazolinyl)oxy]phenyl}-N′-[2-(ethyl-3-methylanilino)ethyl]urea]"
0.01,–,0.134,–,"CCN(CCNC(=O)Nc1ccc(Oc2ccnc3cc(OC)c(OC)cc23)cc1[N+](=O)[O-])c1cccc(C)c1 [Example 666, N-{4-[(6,7-Dimethoxy-4-quinolyl)oxy]-2-nitrophenyl}-N′-[2-(ethyl-3-methylanilino)ethyl]urea]"
< 0.01,–,0.1,–,"CCN(CCNC(=O)Nc1ccc(Oc2ncnc3cc(OC)c(OC)cc23)cc1[N+](=O)[O-])c1cccc(C)c1 [Example 667, N-{4-[(6,7-Dimethoxy-4-quinazolinyl)oxy]-2-nitrophenyl}-N′-[2-(ethyl-3-methylanilino)ethyl]urea]"
< 0.01,–,0.144,–,"CCN(CCNC(=O)Nc1ccc(Oc2ncnc3cc(OC)c(OC)cc23)cc1OC)c1cccc(C)c1 [Example 668, N-{4-[(6,7-Dimethoxy-4-quinazolinyl)oxy]-2-methoxyphenyl}-N′-[2-(ethyl-3-methylanilino)ethyl]urea]"
0.023,–,0.134,–,"CCN(CCNC(=O)Nc1ccc(Oc2ccnc3cc(OC)c(OC)cc23)cc1Cl)c1cccc(C)c1 [Example 669, N-{2-Chloro-4-[(6,7-dimethoxy-4-quinolyl)oxy]phenyl}-N′-[2-(ethyl-3-methylanilino)ethyl]urea]"
0.015,–,0.082,–,"CCN(CCNC(=O)Nc1ccc(Oc2ccnc3cc(OC)c(OC)cc23)cc1OC)c1cccc(C)c1 [Example 670, N-{4-[(6,7-Dimethoxy-4-quinolyl)oxy]-2-methoxyphenyl}-N′-[2-(ethyl-3-methylanilino)ethyl]urea]"
0.064,22,–,–,"COc1cc2nccc(Oc3cc(C)c(NC(=O)NCCN(C(C)C)C(C)C)cc3C)c2cc1OC [Example 671, N-[2-(Diisopropylamino)ethyl]-N′-{4-[(6,7-dimethoxy-4-quinolyl)oxy]-2,5-dimethylphenyl}urea]"

IC50 (PDGF-Ra) [µM],inhibition at 1 µM (c-kit) [%],IC50 (c-kit) [µM],inhibition at 0.1 µM (PDGF-Ra) [%],Structure (SMILES)
0.053,9,–,–,"COc1cc(Oc2ccnc3cc(OC)c(OC)cc23)ccc1NC(=O)NCCN(C(C)C)C(C)C [Example 672, N-[2-(Diisopropylamino)ethyl]-N′-{4-[(6,7-dimethoxy-4-quinolyl)oxy]-2-methoxyphenyl}urea]"
0.015,–,0.426,–,"COc1cc2nccc(Oc3ccc(NC(=O)NCCN4CCCCC4)cc3)c2cc1OC [Example 673, N-{4-[(6,7-Dimethoxy-4-quinolyl)oxy]phenyl}-N′-(2-piperidinoethyl)urea]"
> 0.1,–,0.854,43,"COc1cc2nccc(Oc3cc(C)c(NC(=O)NCCN4CCCCC4)cc3C)c2cc1OC [Example 674, N-{4-[(6,7-Dimethoxy-4-quinolyl)oxy]-2,5-dimethylphenyl}-N′-(2-piperidinoethyl)urea]"
0.046,–,0.442,–,"COc1cc2nccc(Oc3ccc(NC(=O)NCCN4CCCCC4)c(C)c3C)c2cc1OC [Example 675, N-{4-[(6,7-Dimethoxy-4-quinolyl)oxy]-2,3-dimethylphenyl}-N′-(2-piperidinoethyl)urea]"
0.026,–,0.632,–,"COc1cc2ncnc(Oc3ccc(NC(=O)NCCN4CCCCC4)cc3)c2cc1OC [Example 676, N-{4-[(6,7-Dimethoxy-4-quinazolinyl)oxy]phenyl}-N′-(2-piperidinoethyl)urea]"
0.047,–,0.73,–,"COc1cc2ncnc(Oc3ccc(NC(=O)NCCN4CCCCC4)c(Cl)c3)c2cc1OC [Example 677, N-{2-Chloro-4-[(6,7-dimethoxy-4-quinazolinyl)oxy]phenyl}-N′-(2-piperidinoethyl)urea]"
< 0.01,–,0.164,–,"COc1cc2nccc(Oc3ccc(NC(=O)NCCN4CCCCC4)c([N+](=O)[O-])c3)c2cc1OC [Example 678, N-{4-[(6,7-Dimethoxy-4-quinolyl)oxy]-2-nitrophenyl}-N′-(2-piperidinoethyl)urea]"
0.035,–,0.57,–,"COc1cc(Oc2ncnc3cc(OC)c(OC)cc23)ccc1NC(=O)NCCN1CCCCC1 [Example 680, N-{4-[(6,7-Dimethoxy-4-quinazolinyl)oxy]-2-methoxyphenyl}-N′-(2-piperidinoethyl)urea]"
> 0.1,32,–,30,"CCCCN(CCCC)CCNC(=O)Nc1ccc(Oc2ccnc3cc(OC)c(OC)cc23)cc1 [Example 682, N-[2-(Dibutylamino)ethyl]-N′-{4-[(6,7-dimethoxy-4-quinolyl)oxy]phenyl}urea]"
> 0.1,26,–,40,"CCCCN(CCCC)CCNC(=O)Nc1cc(C)c(Oc2ccnc3cc(OC)c(OC)cc23)cc1C [Example 683, N-[2-(Dibutylamino)ethyl]-N′-{4-[(6,7-dimethoxy-4-quinolyl)oxy]-2,5-dimethylphenyl}urea]"
0.052,–,0.549,–,"CCCCN(CCCC)CCNC(=O)Nc1ccc(Oc2ccnc3cc(OC)c(OC)cc23)c(C)c1C [Example 684, N-[2-(Dibutylamino)ethyl]-N′-{4-[(6,7-dimethoxy-4-quinolyl)oxy]-2,3-dimethylphenyl}urea]"
0.022,41,–,–,"CCCCN(CCCC)CCNC(=O)Nc1ccc(Oc2ncnc3cc(OC)c(OC)cc23)cc1 [Example 685, N-[2-(Dibutylamino)ethyl]-N′-{4-[(6,7-dimethoxy-4-quinazolinyl)oxy]phenyl}urea]"
0.038,19,–,–,"CCCCN(CCCC)CCNC(=O)Nc1ccc(Oc2ncnc3cc(OC)c(OC)cc23)cc1Cl [Example 686, N-{2-Chloro-4-[(6,7-dimethoxy-4-quinazolinyl)oxy]phenyl}-N′-[2-(dibutylamino)ethyl]urea]"
0.034,19,–,–,"CCCCN(CCCC)CCNC(=O)Nc1ccc(Oc2ncnc3cc(OC)c(OC)cc23)cc1OC [Example 688, N-[2-(Dibutylamino)ethyl]-N′-{4-[(6,7-dimethoxy-4-quinazolinyl)oxy]-2-methoxyphenyl}urea]"
> 0.1,–,0.571,42,"CCCCN(CCCC)CCNC(=O)Nc1ccc(Oc2ccnc3cc(OC)c(OC)cc23)cc1OC [Example 689, N-[2-(Dibutylamino)ethyl]-N′-{4-[(6,7-dimethoxy-4-quinolyl)oxy]-2-methoxyphenyl}urea]"
